We go through 25 compounds from ChEMBL document CHEMBL1201862, “PubChem BioAssay data set” (2004).

Calls of active or inactive are those of the source.

One may read the AC50 as the midpoint of the concentration-response curve, whichever way the signal moves.

The target of assay [1] is T1, Heat shock factor protein 1 (Mus musculus, UniProt P38532).
T1 sequence (P38532 whole entry): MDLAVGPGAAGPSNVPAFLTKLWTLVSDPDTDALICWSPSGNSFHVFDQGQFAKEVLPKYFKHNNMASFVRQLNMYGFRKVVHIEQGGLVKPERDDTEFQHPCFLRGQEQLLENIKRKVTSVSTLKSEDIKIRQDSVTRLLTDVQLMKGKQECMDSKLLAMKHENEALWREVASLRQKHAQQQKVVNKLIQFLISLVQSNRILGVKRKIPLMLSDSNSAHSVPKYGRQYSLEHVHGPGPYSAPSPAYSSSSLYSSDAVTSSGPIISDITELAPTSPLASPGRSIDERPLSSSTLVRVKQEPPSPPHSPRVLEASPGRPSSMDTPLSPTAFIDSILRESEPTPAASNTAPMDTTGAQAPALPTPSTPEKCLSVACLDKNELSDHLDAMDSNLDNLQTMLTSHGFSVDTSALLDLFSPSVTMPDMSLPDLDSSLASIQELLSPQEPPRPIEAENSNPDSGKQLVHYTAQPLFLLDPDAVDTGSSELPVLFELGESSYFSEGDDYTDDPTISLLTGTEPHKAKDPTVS
Description: inhibition of MG132-induced HSE-luciferase signal, confirmation, cell-based, NIH3T3, luminescence, dose retest (AID 2382).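 Further: NIH3T3 fibroblasts with HSF1-driven luciferase reporter stressed by proteasome inhibitor MG132; luminescence from HSF1-driven luciferase expression after 8 hours of MG132 stress.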 In kind it is functional.

Assay [2] addresses T2, Cytochrome P450 1A2 (Homo sapiens, UniProt P05177).
T2 sequence (P05177 whole entry): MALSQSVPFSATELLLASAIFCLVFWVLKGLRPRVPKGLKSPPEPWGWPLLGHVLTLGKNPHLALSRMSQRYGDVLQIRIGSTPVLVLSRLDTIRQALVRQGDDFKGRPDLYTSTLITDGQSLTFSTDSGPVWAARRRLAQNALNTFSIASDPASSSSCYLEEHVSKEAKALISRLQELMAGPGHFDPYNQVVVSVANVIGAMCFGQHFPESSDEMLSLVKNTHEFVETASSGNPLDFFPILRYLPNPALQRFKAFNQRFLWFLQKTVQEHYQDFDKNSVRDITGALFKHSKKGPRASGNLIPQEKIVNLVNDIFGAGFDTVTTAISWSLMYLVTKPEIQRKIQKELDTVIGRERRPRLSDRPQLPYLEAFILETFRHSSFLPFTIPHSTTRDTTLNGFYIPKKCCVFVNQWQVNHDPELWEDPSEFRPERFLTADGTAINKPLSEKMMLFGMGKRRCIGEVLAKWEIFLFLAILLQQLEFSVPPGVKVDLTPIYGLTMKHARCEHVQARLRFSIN

Assay [3] addresses Cytochrome P450 2D6 (Homo sapiens, UniProt P10635).
Assay [4] concerns the target Cytochrome P450 3A4 (Homo sapiens, UniProt P08684).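 Further: CYP3A4 tested as one member of a cytochrome P450 panel screen.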
The target in assay [5] is T3, Corticotropin-releasing factor receptor 2/Corticotropin-releasing factor-binding protein (Homo sapiens, UniProt P24387+Q13324).
T3 sequence (Q13324 whole entry): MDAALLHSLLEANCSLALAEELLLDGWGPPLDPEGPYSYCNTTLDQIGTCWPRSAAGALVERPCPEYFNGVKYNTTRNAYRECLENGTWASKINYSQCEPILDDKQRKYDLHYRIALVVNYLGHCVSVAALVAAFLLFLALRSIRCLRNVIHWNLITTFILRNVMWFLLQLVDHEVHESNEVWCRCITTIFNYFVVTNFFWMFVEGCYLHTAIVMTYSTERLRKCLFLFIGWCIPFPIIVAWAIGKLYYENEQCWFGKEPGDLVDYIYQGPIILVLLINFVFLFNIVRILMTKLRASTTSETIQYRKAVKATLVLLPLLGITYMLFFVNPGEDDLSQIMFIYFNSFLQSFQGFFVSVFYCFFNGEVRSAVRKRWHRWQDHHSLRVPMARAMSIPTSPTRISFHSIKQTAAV
T3 sequence (P24387 whole entry): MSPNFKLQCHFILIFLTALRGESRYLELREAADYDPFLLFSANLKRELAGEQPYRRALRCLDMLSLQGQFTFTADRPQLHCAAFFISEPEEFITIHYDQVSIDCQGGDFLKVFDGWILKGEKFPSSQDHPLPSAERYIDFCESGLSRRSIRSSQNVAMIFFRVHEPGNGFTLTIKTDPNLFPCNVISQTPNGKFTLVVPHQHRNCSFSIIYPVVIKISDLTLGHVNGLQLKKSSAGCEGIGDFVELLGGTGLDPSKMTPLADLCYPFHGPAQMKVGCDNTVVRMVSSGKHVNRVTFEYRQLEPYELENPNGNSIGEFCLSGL
Description: activators of CRF receptor 2 with binding protein – uHTS hits, confirmation (AID 602473). The note with it: read-out: EC50_Mean. In kind it is functional.

Assay [6] deals with T3, Corticotropin-releasing factor receptor 2/Corticotropin-releasing factor-binding protein. Description: Dose Response confirmation of uHTS hits for small molecule antagonists of the CRF-binding protein and CRF-R2 receptor complex. The note with it: read-out: IC50_Mean. It is filed as functional.
Assay [7] concerns the target Cytochrome P450 2C9 (Homo sapiens, UniProt P11712).
The target in assay [8] is T4, Rac GTPase-activating protein 1 (Homo sapiens, UniProt Q9H0H5).
T4 sequence (Q9H0H5 whole entry): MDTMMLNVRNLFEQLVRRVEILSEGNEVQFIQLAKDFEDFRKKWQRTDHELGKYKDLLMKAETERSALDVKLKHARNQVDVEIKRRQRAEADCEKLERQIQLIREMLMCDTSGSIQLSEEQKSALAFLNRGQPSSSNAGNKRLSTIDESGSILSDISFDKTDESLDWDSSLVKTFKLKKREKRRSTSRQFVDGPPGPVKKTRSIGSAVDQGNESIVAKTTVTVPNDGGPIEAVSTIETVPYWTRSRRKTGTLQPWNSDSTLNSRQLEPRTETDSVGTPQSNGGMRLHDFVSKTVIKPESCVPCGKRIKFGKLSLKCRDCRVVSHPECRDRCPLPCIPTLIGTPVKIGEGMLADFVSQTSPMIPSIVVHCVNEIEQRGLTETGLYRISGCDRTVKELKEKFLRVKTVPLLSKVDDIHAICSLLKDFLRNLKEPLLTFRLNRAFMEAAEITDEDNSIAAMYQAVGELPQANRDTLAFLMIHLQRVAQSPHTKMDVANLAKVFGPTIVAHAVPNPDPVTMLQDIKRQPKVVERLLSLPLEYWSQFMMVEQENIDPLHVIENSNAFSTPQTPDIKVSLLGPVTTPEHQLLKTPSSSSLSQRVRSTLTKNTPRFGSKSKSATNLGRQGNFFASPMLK
Description: MgcRacGAP GTPase-activating activity inhibitors, confirmation, biochemical, ADP Hunter fluorescence, primary and confirmatory (AID 624330). It is filed as functional.

Chain of Cytochrome P450 2D6 (P10635 whole entry): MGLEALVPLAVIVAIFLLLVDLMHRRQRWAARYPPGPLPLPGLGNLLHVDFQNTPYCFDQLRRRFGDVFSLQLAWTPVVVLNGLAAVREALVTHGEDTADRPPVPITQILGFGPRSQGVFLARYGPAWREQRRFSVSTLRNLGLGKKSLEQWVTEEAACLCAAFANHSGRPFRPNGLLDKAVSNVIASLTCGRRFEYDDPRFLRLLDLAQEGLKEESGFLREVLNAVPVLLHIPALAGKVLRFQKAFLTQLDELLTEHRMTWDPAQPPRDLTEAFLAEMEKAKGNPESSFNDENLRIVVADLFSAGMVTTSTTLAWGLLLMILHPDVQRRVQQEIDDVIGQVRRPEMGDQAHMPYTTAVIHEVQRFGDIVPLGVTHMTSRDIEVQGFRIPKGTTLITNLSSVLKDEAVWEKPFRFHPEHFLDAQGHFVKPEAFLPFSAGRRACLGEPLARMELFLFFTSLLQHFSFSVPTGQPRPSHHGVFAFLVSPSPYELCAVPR
Chain of Cytochrome P450 3A4 (P08684 whole entry): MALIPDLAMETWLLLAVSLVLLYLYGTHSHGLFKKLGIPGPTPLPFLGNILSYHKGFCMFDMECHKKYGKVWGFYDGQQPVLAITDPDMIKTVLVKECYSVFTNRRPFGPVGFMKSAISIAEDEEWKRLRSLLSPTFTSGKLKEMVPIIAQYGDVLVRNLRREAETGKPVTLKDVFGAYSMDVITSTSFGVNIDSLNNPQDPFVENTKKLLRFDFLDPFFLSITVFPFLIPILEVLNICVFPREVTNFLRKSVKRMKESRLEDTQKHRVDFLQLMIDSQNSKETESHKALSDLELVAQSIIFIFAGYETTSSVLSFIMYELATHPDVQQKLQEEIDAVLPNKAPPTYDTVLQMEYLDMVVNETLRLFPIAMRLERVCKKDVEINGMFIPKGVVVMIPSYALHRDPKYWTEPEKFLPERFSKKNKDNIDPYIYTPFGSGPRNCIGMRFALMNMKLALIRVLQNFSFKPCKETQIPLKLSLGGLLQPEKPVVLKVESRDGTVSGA
Chain of Cytochrome P450 2C9 (P11712 whole entry): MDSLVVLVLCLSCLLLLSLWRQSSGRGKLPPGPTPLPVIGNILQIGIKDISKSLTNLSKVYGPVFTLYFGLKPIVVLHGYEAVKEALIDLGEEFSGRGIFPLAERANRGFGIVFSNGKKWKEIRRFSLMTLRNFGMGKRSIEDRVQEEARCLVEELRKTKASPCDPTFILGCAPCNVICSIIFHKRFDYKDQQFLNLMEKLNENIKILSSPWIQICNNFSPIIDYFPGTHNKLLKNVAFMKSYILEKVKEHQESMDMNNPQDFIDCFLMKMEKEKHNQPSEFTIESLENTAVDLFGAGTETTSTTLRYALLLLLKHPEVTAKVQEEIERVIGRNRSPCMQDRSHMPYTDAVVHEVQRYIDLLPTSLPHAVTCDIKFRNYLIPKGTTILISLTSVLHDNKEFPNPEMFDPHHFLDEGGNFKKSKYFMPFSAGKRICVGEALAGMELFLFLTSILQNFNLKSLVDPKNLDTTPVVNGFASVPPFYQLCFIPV

`COc1cccc(N2CCN(C(S)=Nc3cc(C)cc(C)c3)CC2)c1`: the EC50 in assay [1] was 94.4 µM (active).
Still for that read-out and setting: under `CCOc1ccc2nc(NC(=O)/C=C/c3ccc4c(c3)OCO4)sc2c1` stands > 195 µM (not active).
Take `Cc1ccc(NC(=O)Cn2cnc3c(cnn3C(C)(C)C)c2=O)cc1`: the results for the AC50 in assay [2], in assay [3] and in assay [4] were 31.6 µM (inconclusive), 14.1 µM (inconclusive) and 12.6 µM (inconclusive), respectively.
Turning to `O=C(Nc1nc(-c2ccccc2)cs1)c1ccc2c(c1)S(=O)(=O)c1ccccc1C2=O`, the EC50 in assay [5] was > 53 µM (inactive). The IC50 in assay [6] was > 47.1 µM (inactive).
For `CCN(c1ccccc1)S(=O)(=O)c1cc(NC(=O)CSc2nnc(O)nc2O)ccc1Cl` the same measures were > 53 µM (inactive) and > 47.1 µM (inactive).
Take `O=C(CC1CCCCC1)NCc1ccccn1`: the EC50 in assay [1] is > 195 µM (not active).
Same read-out and setting: under `COc1ccc(N2CCN(c3oc(Cc4ccccc4)nc3C#N)CC2)cc1` stands > 195 µM (not active).
With `CCCc1cc(=O)nc(SCC(=O)Nc2ccc(OC(F)F)cc2)[nH]1`, the EC50 in assay [5] is > 53 µM (inactive). In addition, the IC50 in assay [6] was > 47.1 µM (inactive).
As for `CN1N=C2c3ccccc3CCC2C1c1ccc(C(F)(F)F)cc1` (stereo not drawn), the EC50 in assay [1] was 79.4 µM (active).
For the compound `C[C@@]12C=CC(=O)C=C1CC[C@@H]1C2=CC[C@]2(C)[C@@H]1CC[C@H]2C(=O)CN1CCN(c2cc(N3CCCC3)nc(N3CCCC3)n2)CC1`, the values for the AC50 in assay [2], in assay [3] and in assay [7] were 12.6 µM (inconclusive), 25.1 µM (inconclusive) and 12.6 µM (inconclusive), respectively.
Take `O=C1c2ccccc2-c2ncnc3c(N4CCOCC4)cc(N4CCOCC4)c1c23`: in assay [5], the EC50 was > 53 µM (inactive). For the same compound, in assay [6], the IC50 was > 47.1 µM (inactive).
As for `CCCCOc1cccc(C2C(C(=O)c3cccs3)=C(O)C(=O)N2Cc2cccnc2)c1` (stereo not drawn), the EC50 in assay [1] is reported as > 195 µM (not active).
Consider `COc1ccc(Nc2nc(Cl)nc(NCc3ccco3)n2)c(OC)c1`, for which, in assay [5], the EC50 is > 53 µM (inactive). Also, the IC50 in assay [6] is > 47.1 µM (inactive).
On the same counts, the results for `Cc1ccccc1C(=O)NCC(=O)OC1CCCCC1=O` (stereo not drawn) are > 53 µM (inactive) and > 47.1 µM (inactive).
For the compound `Cn1c2ccccc2c2cnn(CC(=O)N3CCC4(CC3)OCCO4)c(=O)c21`, the EC50 in assay [1] was 39.3 µM (active).
The same measure, in the same setting: under `COc1cc2c(cc1OC)C(/C=C(\O)c1ccc(C)cc1)=NCC2` stands > 195 µM (not active).
As to `COC(=O)N1CCC2(CCCN(C(=O)Nc3ccc(OC)cc3)C2)CC1`, the values for the concentration at half-maximal activity (AC50) in assay [2] and in assay [4] were 20 µM (inconclusive) and 25.1 µM (inconclusive), respectively.
For the compound `Cc1ccc(CNC(=O)CCC(=O)c2cccs2)cc1`, the EC50 in assay [5] was > 53 µM (inactive). Moreover, the IC50 in assay [6] was > 47.1 µM (inactive).
Take `Cc1ccc(OCCC(=O)OCC(=O)Nc2ccc(N3CCOCC3)cc2)cc1`: the EC50 in assay [1] is given as > 195 µM (not active).
In the case of `COc1cccc(OC)c1C(=O)N1CCN(Cc2cccnc2)CC1`, the EC50 in assay [5] is > 53 µM (inactive). Besides, the results for the IC50 in assay [6] and in assay [8] were > 47.1 µM (inactive) and 203 µM (active), respectively.
Regarding `Cc1cc(OCCCC(=O)Nc2cc(S(=O)(=O)N3CCOCC3)ccc2N2CCOCC2)ccc1Cl`, the EC50 in assay [5] was > 53 µM (inactive). Moreover, in assay [6], the IC50 was > 47.1 µM (inactive).
On the same counts, the results for `CCC(C)c1ccc(S(=O)(=O)N2CCN(CC(O)COCC3CCCO3)CC2)cc1` (stereo not drawn) are > 53 µM (inactive) and > 47.1 µM (inactive).
On the same counts, the results for `COc1ccc(N2CCN(C(=O)CCS(=O)(=O)c3ccc4c(c3)NC(=O)CO4)CC2)cc1` are > 53 µM (inactive) and > 47.1 µM (inactive).
On to `Cc1ccc(S(=O)(=O)N/N=C/c2c(C)nn(-c3ccccc3)c2C)cc1`, for which the EC50 in assay [1] is on record as > 195 µM (not active).
Turning to `NCCCC(=O)O` [GAMMA-AMINOBUTYRIC ACID], the concentration at half-maximal activity (AC50) in assay [2] is 31.6 µM (inconclusive). In assay [1], the EC50 is listed as > 195 µM (not active).
